Measurements published in ChEMBL document CHEMBL4229455, “Synthesis and anticancer activity of novel bisindolylhydroxymaleimide derivatives with potent GSK-3 kinase inhibition” (Bioorg Med Chem, 2018).

Tests used:
Assay type in all cases: functional
[1] = system: SK-MEL-5; test: Cytotoxicity against human SK-MEL-5 cells assessed as cell growth at 1 uM after 48 hrs by SRB assay relative to control; details: SK-MEL-5, 48 h, read-out: Activity
[2] = system: SF-295; test: Cytotoxicity against human SF295 cells assessed as cell growth at 1 uM after 48 hrs by SRB assay relative to control; details: SF-295, 48 h, read-out: Activity
[3] = system: UACC-62; test: Cytotoxicity against human UACC62 cells after 48 hrs by SRB assay; details: UACC-62, 48 h
[4] = system: DU-145; test: Cytotoxicity against human DU145 cells assessed as cell growth at 100 uM after 48 hrs by SRB assay relative to control; details: DU-145, 48 h, read-out: Activity
[5] = system: HCT-15; test: Cytotoxicity against human HCT15 cells assessed as cell growth at 100 uM after 48 hrs by SRB assay relative to control; details: HCT-15, 48 h, read-out: Activity
[6] = system: MOLT-4; test: Cytotoxicity against human MOLT4 cells after 48 hrs by SRB assay; details: MOLT-4, 48 h; for CC50: read-out: LC50 (the source's name)
[7] = system: MDA-MB-435; test: Cytotoxicity against human MDA-MB-435 cells assessed as cell growth at 0.01 uM after 48 hrs by SRB assay relative to control; details: MDA-MB-435, 48 h, read-out: Activity
[8] = system: IGROV-1; test: Cytotoxicity against human IGROV1 cells assessed as cell growth at 0.1 uM after 48 hrs by SRB assay relative to control; details: IGROV-1, 48 h, read-out: Activity
[9] = system: SF-268; test: Cytotoxicity against human SF268 cells after 48 hrs by SRB assay; details: SF-268, 48 h; for CC50: read-out: LC50 (the source's name)
[10] = system: HT-29; test: Cytotoxicity against human HT-29 cells assessed as cell growth at 100 uM after 48 hrs by SRB assay relative to control; details: HT-29, 48 h, read-out: Activity
[11] = system: 786-0; test: Cytotoxicity against human 786-O cells after 48 hrs by SRB assay; details: 786-0, 48 h
[12] = system: SN12C; test: Cytotoxicity against human SN12C cells assessed as cell growth at 0.01 uM after 48 hrs by SRB assay relative to control; details: read-out: Activity
[13] = system: HCC 2998; test: Cytotoxicity against human HCC2998 cells after 48 hrs by SRB assay; details: HCC 2998, 48 h
[14] = system: 786-0; test: Cytotoxicity against human 786-O cells assessed as cell growth at 0.01 uM after 48 hrs by SRB assay relative to control; details: 786-0, 48 h, read-out: Activity
[15] = system: SK-MEL-2; test: Cytotoxicity against human SK-MEL-2 cells assessed as cell growth at 0.1 uM after 48 hrs by SRB assay relative to control; details: SK-MEL-2, 48 h, read-out: Activity
[16] = system: ACHN; test: Cytotoxicity against human ACHN cells assessed as cell growth at 100 uM after 48 hrs by SRB assay relative to control; details: read-out: Activity
[17] = system: NCI-H460; test: Cytotoxicity against human NCI-H460 cells assessed as cell growth at 0.01 uM after 48 hrs by SRB assay relative to control; details: NCI-H460, 48 h, read-out: Activity
[18] = system: Malme-3M; test: Cytotoxicity against human MALME-3M cells assessed as cell growth at 0.01 uM after 48 hrs by SRB assay relative to control; details: read-out: Activity
[19] = system: TK-10; test: Cytotoxicity against human TK10 cells assessed as cell growth at 1 uM after 48 hrs by SRB assay relative to control; details: TK-10, 48 h, read-out: Activity
[20] = system: T47D; test: Cytotoxicity against human T47D cells assessed as cell growth at 100 uM after 48 hrs by SRB assay relative to control; details: read-out: Activity
[21] = system: SNB-19; test: Cytotoxicity against human SNB19 cells assessed as cell growth at 0.1 uM after 48 hrs by SRB assay relative to control; details: SNB-19, 48 h, read-out: Activity
[22] = system: UACC-62; test: Cytotoxicity against human UACC62 cells assessed as cell growth at 100 uM after 48 hrs by SRB assay relative to control; details: UACC-62, 48 h, read-out: Activity
[23] = system: COLO 205; test: Cytotoxicity against human COLO205 cells assessed as cell growth at 0.01 uM after 48 hrs by SRB assay relative to control; details: COLO 205, 48 h, read-out: Activity
[24] = system: SF-268; test: Cytotoxicity against human SF268 cells assessed as cell growth at 0.1 uM after 48 hrs by SRB assay relative to control; details: SF-268, 48 h, read-out: Activity
[25] = system: MCF7; test: Cytotoxicity against human MCF7 cells assessed as cell growth at 1 uM after 48 hrs by SRB assay relative to control; details: MCF7, 48 h, read-out: Activity
[26] = system: SF-539; test: Cytotoxicity against human SF539 cells after 48 hrs by SRB assay; details: SF-539, 48 h
[27] = system: CAKI-1; test: Cytotoxicity against human Caki1 cells assessed as cell growth at 1 uM after 48 hrs by SRB assay relative to control; details: CAKI-1, 48 h, read-out: Activity
[28] = system: OVCAR-8; test: Cytotoxicity against human OVCAR8 cells after 48 hrs by SRB assay; details: OVCAR-8, 48 h
[29] = system: OVCAR-3; test: Cytotoxicity against human OVCAR3 cells after 48 hrs by SRB assay; details: OVCAR-3, 48 h
[30] = system: CCRF-CEM; test: Cytotoxicity against human CCRF-CEM cells assessed as cell growth at 1 uM after 48 hrs by SRB assay relative to control; details: read-out: Activity
[31] = system: IGROV-1; test: Cytotoxicity against human IGROV1 cells assessed as cell growth at 100 uM after 48 hrs by SRB assay relative to control; details: IGROV-1, 48 h, read-out: Activity
[32] = system: RXF 393; test: Cytotoxicity against human RXF393 cells assessed as cell growth at 1 uM after 48 hrs by SRB assay relative to control; details: RXF 393, 48 h, read-out: Activity
[33] = system: MOLT-4; test: Cytotoxicity against human MOLT4 cells assessed as cell growth at 100 uM after 48 hrs by SRB assay relative to control; details: MOLT-4, 48 h, read-out: Activity
[34] = system: TK-10; test: Cytotoxicity against human TK10 cells assessed as cell growth at 0.01 uM after 48 hrs by SRB assay relative to control; details: TK-10, 48 h, read-out: Activity
[35] = system: NCI-H23; test: Cytotoxicity against human NCI-H23 cells assessed as cell growth at 0.01 uM after 48 hrs by SRB assay relative to control; details: NCI-H23, 48 h, read-out: Activity
[36] = system: ACHN; test: Cytotoxicity against human ACHN cells after 48 hrs by SRB assay; details: for CC50: read-out: LC50 (the source's name)

SMILES: N#CCCCCCn1cc(C2=C(c3cn(CCCCCC#N)c4ccccc34)C(=O)N(O)C2=O)c2ccccc21
- growth at 1 µM [1]: 92%
- growth at 1 µM [2]: 96%
- GI50 [3]: 3.23 µM
- LC50 [3]: 84.4 µM
- TGI [3]: 16 µM
- growth at 100 µM [4]: 12%
- growth at 100 µM [5]: 1%
- GI50 [6]: 2.93 µM
- TGI [6]: > 100 µM
- CC50 [6]: > 100 µM
- growth at 0.01 µM [7]: 95%
- growth at 0.1 µM [8]: 101%
- GI50 [9]: 10.1 µM
- TGI [9]: > 100 µM
- CC50 [9]: > 100 µM
- growth at 100 µM [10]: -33%
- GI50 [11]: 10.3 µM
- LC50 [11]: > 100 µM
- TGI [11]: > 100 µM
- growth at 0.01 µM [12]: 97%
- GI50 [13]: 14.2 µM
- LC50 [13]: > 100 µM
- TGI [13]: > 100 µM
- growth at 0.01 µM [14]: 103%
- growth at 0.1 µM [15]: 98%
- growth at 100 µM [16]: 4%
- growth at 0.01 µM [17]: 104%
- growth at 0.01 µM [18]: 100%
- growth at 1 µM [19]: 107%
- growth at 100 µM [20]: -7%
- growth at 0.1 µM [21]: 95%
- growth at 100 µM [22]: -55%
- growth at 0.01 µM [23]: 99%
- growth at 0.1 µM [24]: 95%
- growth at 1 µM [25]: 95%
- GI50 [26]: 2.82 µM
- LC50 [26]: > 100 µM
- TGI [26]: 9.42 µM
- growth at 1 µM [27]: 93%
- GI50 [28]: 12.3 µM
- LC50 [28]: > 100 µM
- TGI [28]: > 100 µM
- GI50 [29]: 3.81 µM
- LC50 [29]: > 100 µM
- TGI [29]: 19 µM
- growth at 1 µM [30]: 83%
- growth at 100 µM [31]: -5%
- growth at 1 µM [32]: 98%
- growth at 100 µM [33]: 2%
- growth at 0.01 µM [34]: 93%
- growth at 0.01 µM [35]: 95%
- GI50 [36]: 8.04 µM
- TGI [36]: > 100 µM
- CC50 [36]: > 100 µM

SMILES: Cn1cc(C2=C(c3cn(C)c4ncccc34)C(=O)NC2=O)c2ccccc21
- growth at 1 µM [1]: 89%
- growth at 1 µM [2]: 85%
- GI50 [3]: 4.22 µM
- TGI [3]: 22 µM
- growth at 100 µM [4]: -28%
- growth at 100 µM [5]: -6%
- GI50 [6]: 3.53 µM
- TGI [6]: 17.7 µM
- CC50 [6]: > 100 µM
- growth at 0.01 µM [7]: 98%
- growth at 0.1 µM [8]: 97%
- GI50 [9]: 4.86 µM
- TGI [9]: 48.4 µM
- CC50 [9]: > 100 µM
- growth at 100 µM [10]: -10%
- GI50 [11]: 3.59 µM
- TGI [11]: 23.7 µM
- growth at 0.01 µM [12]: 89%
- GI50 [13]: 4.35 µM
- TGI [13]: 28.2 µM
- growth at 0.01 µM [14]: 99%
- growth at 0.1 µM [15]: 113%
- growth at 100 µM [16]: -11%
- growth at 0.01 µM [17]: 97%
- growth at 0.01 µM [18]: 109%
- growth at 1 µM [19]: 87%
- growth at 100 µM [20]: -11%
- growth at 0.1 µM [21]: 91%
- growth at 100 µM [22]: -51%
- growth at 0.01 µM [23]: 105%
- growth at 0.1 µM [24]: 102%
- growth at 1 µM [25]: 73%
- GI50 [26]: 2.09 µM
- TGI [26]: 5.85 µM
- growth at 1 µM [27]: 54%
- GI50 [28]: 4.23 µM
- TGI [28]: 39.9 µM
- GI50 [29]: 4.49 µM
- TGI [29]: 36.8 µM
- growth at 1 µM [30]: 85%
- growth at 100 µM [31]: -10%
- growth at 1 µM [32]: 83%
- growth at 100 µM [33]: -24%
- growth at 0.01 µM [34]: 100%
- growth at 0.01 µM [35]: 100%
- GI50 [36]: 2.93 µM
- TGI [36]: 26.2 µM
- CC50 [36]: > 100 µM
